Patent publication US6589566B2, “Composition comprising theanine” (priority 1998, dated 2003)

Assays:
male and female subjects = assay: Test Example 4: anxiety group after coffee extract beverage containing L-theanine; assay type: in vivo, humans; conditions: 10 times per day for one month, 7 subjects
Procedure: Each of male and female subjects consisting of a total of 7 members was given a beverage prepared by dissolving the L-theanine obtained in Examples 1 and 2 at amounts of 0 mg, 60 mg, 300 mg or 1200 mg in 100 g of coffee extract in boiling water (equivalent to about 1 mg/kg, about 5 mg/kg, and about […], respectively) 10 times per day for one month.

ICR male mice = assay: Example 11: amount of spontaneous exercise, rotatable cage; assay type: in vivo; conditions: oral 10 ml of 1% by weight aqueous solution per 1 kg body weight, versus non-administered group
Procedure: Ten ICR male mice were each orally administered with 10 ml of a 1% by weight theanine aqueous solution, per 1 kg of body weight, and the mice were allowed to stand in an inhalation box. The administered group of mice were compared with the 10 non-administered group of mice, wherein the amount of excercise was evaluated by counting the number of rotations of the rotatable cage for 60 minutes.

mice = assay type: in vivo; conditions: oral administration of 2 g/kg
Source text: Theanine, formulated in the theanine-containing composition of the present invention, is a glutamic acid derivative contained in tea-leaves, which is the main component of deliciousness (umami) of tea. It is also used as a food additive for seasoning. […] As described above, the theanine is an extremely safe substance.

[1] = test system: women complaining of premenstrual syndrome symptoms; assay: Test Example 5: premenstrual syndrome questionnaire, powdered L-theanine; assay type: in vivo, humans; conditions: 20 women, 50 mg powdered L-theanine per day during corpus lutea stage
Procedure: A test for assessing the premenstrual syndrome-suppressive effect of the inventive product was performed in 20 women complaining of 5 or more premenstrual syndrome symptoms. The inventive product used herein was powdered L-theanine as prepared in Example 1. Each subject was requested to measure their basal body temperature upon awaking for 2 months. […] During the test period, physical symptoms, mental symptoms and social symptoms were recorded in detail everyday. On the first day of the third menstruation, the test was terminated and a questionnaire survey was conducted. Questionnaire Survey Concerning Premenstrual Syndrome of Test Example 5 1. Were PMS symptoms suppressed ? 1) having remarkable effects; 2) having some effects; 3) having slight effects; 4) none. 2. For those selected 1), 2) or 3) in 1., were there any improvements in the daily life ? […] 3. For those selected 1), 2) or 3) in 1., please give specifics: […]

[2] = Theanine content 60 mg in 100 g coffee extract
[3] = Theanine content 300 mg in 100 g coffee extract
[4] = Theanine content 1200 mg in 100 g coffee extract

In the case of `CCNC(=O)CC[C@H](N)C(=O)O` [L-theanine], the “High-Anxiety Group (number of subjects)” value (male and female subjects; [2]) is reported as 2, the “Low-Anxiety Group (number of subjects)” value (male and female subjects; [2]) is reported as 2 and the “Moderate-Anxiety Group (number of subjects)” value (shortened to “Moderate-Anxiety Group”) (male and female subjects; [2]) is reported as 3. The “High-Anxiety Group (number of subjects)” value (male and female subjects; [3]) was 0, the “Low-Anxiety Group (number of subjects)” value (male and female subjects; [3]) was 0 and the “Moderate-Anxiety Group” value (male and female subjects; [3]) was 1. For the same molecule, the “High-Anxiety Group (number of subjects)” value (male and female subjects; [4]) was 0, the “Low-Anxiety Group (number of subjects)” value (male and female subjects; [4]) was 7 and the “Moderate-Anxiety Group” value (male and female subjects; [4]) was 0. For the same molecule, the “amount of exercise (number of rotations of the rotatable cage for 60 minutes)” value (ICR male mice) was “significant decrease”, the “dead cases in acute toxicity test” value (mice) was “no dead cases” and the “Were PMS symptoms suppressed? 4) none” value [1] was 0 subjects (0%).
